Read-outs that look alike come from different tables or passages of the source.
Legend:
[1] = system: human lung cancer cell line A549; assay: Tumor cell growth inhibition, SRB staining, A549; format: cell-based; conditions: A549, 72 h
Procedure: The growth inhibition assay of tumor cells was detected by sulforhodamine B (SRB) staining method. The specific steps were as follows: inoculating human colon cancer cell line HCT116 and human lung cancer cell line A549 (purchased from American Type Culture Collection, ATCC) at the logarithmic growth phase into a 96-well micro culture plate at an appropriate concentration of 4000 cells/well, 100 μL for each well; after culturing overnight, adding with the compound at different concentrations (100, 10, 1, 0.1, 0.01 μM) to react for 72 h, wherein triplicate wells were set up for each concentration, and solvent control wells with the corresponding concentration and zero wells without cells were also set up. After the completion of the reaction, the culture medium was removed from the adherent cells, the later was added with 10% (w/v) trichloroacetic acid (100 μL/well) at 4° C. to fix for 1 h, and then washed five times with distilled water. After drying at room temperature, 100 μL of SRB solution (4 mg/mL, dissolved in 1% glacial acetic acid) was added into each well, followed by incubation and staining for 15 min at room temperature. The uncombined SRB was removed by washing five times with 1% glacial acetic acid. After drying at room temperature, 100 μL of 10 mM Tris solution was added into each well, and the optical density (OD) at 515 nm was measured by a […] microplate reader. The inhibition rate of the drug to tumor cell growth was calculated according to the following equation: Inhibition rate (%)=(OD of control well-OD of drug well)/OD of control well×100%. The experiment was repeated twice.

HSP90α = HSP90α (Homo sapiens (Human), UniProt P07900); assay: Fluorescence polarization (FP) HSP90-alpha target binding assay
From the text: In the present invention, the method of fluorescence polarization (FP) was used to establish the screening platform for HSP90-alpha inhibitors. The principle based on is to calculate fluorescence polarization values in horizontal and vertical directions by detecting molecular weight changes before and after interaction of fluorescent labeled small molecules with other molecules, in use for correlation analysis. If binding equilibria between the fluorescent labeled small molecule and the macromolecule is established, it moves slowly when excited, and the fluorescence polarization values measured will increase. If the fluorescent labeled small molecule binding to the macromolecule is replaced with other ligands, its rotational or inversional speed in free state will become faster, the emitted light would be depolarized with respect to the exciting light plane, and thus the polarized light value measured will decrease, so as to calculate the polarization value of the sample (the unit of polarization value is mP).
The fluorescent labeled small molecule used in the present invention was VER-00051001 (synthesized by reference to the synthetic method described in JMC, 2008, 51, 196-218). The reaction was carried out in a 384-well black plate, using the reaction hydrophobic protein HFB buffer: 100 mM Tris.Cl pH 7.4, 20 mM KCl, 6 mM MgCl2, 5 μg/mL BSA, 25 nM full-length Hsp90U, 10 nM VER-51001. The volume of the reaction system was […], containing 5 nM GM-BODIPY (geldanamycin), 30 nM HSP90 and the test small molecular compound or DMSO (dimethyl sulfoxide), wherein the DMSO content was 2% o. Additional two group wells were established, wherein the wells only added with HFB buffer were used as blank controls, and the wells further added with 5 nM GM-BODIPY were used as negative controls. The reaction was carried out at 4° C. for 12-16 hours. The mP value was measured by Biotek microplate reader at 485 nm of excitation wavelength and 535 nm of emission wavelength. The inhibition rate was calculated using the following equation: (Compound-free mP−Compound mP)/(Compound-free mP−negative control mP)×100%

[2] = fluorescence polarization, read-out: Target binding ability HSP90α FP IC50

Row | Compound | EC50 [1] [nM] | IC50 (HSP90α; [2]) [nM] | IC50 (HSP90α) [nM]
1 | CCNC(=O)c1noc(-c2cc(C(C)C)c(O)cc2O)c1-c1ccc2c(c1)C1CCC2N1 (stereo not drawn) [Example 4, 5-(2,4-dihydroxyl-5-isopropylphenyl)-N-ethyl-4-(1,2,3,4-tetrahydro-1,4-epiminonaphth-6-yl)isoxazole-3-carboxamide] | 20 to 100 |  | 20 to 100
2 | CCNC(=O)c1noc(-c2cc(C(C)C)c(O)cc2O)c1-c1ccc2c(c1)C1CCC2N1C (stereo not drawn) [Example 5, 5-(2,4-dihydroxyl-5-isopropylphenyl)-N-ethyl-4-(9-methyl-1,2,3,4-tetrahydro-1,4-epiminonaphth-6-yl)isoxazole-3-carboxamide] | < 20 |  | 20 to 100
3 | CCNC(=O)c1noc(-c2cc(C(C)C)c(O)cc2O)c1-c1ccc2c(c1)C1CCC2N1CC (stereo not drawn) [Example 6, 5-(2,4-dihydroxyl-5-isopropylphenyl)-N-ethyl-4-(9-ethyl-1,2,3,4-tetrahydro-1,4-epiminonaphth-6-yl)isoxazole-3-carboxamide] | < 20 |  | 20 to 100
4 | CCNC(=O)c1noc(-c2cc(C(C)C)c(O)cc2O)c1-c1ccc2c(c1)C1CCC2N1C(C)C (stereo not drawn) [Example 7, 5-(2,4-dihydroxyl-5-isopropylphenyl)-N-ethyl-4-(9-isopropyl-1,2,3,4-tetrahydro-1,4-epiminonaphth-6-yl)isoxazole-3-carboxamide] | < 20 |  | 20 to 100
5 | CCNC(=O)c1noc(-c2cc(C(C)C)c(O)cc2O)c1-c1ccc2c(c1)C1CCC2N1CC(C)C (stereo not drawn) [Example 8, 5-(2,4-dihydroxyl-5-isopropylphenyl)-N-ethyl-4-(9-isobutyl-1,2,3,4-tetrahydro-1,4-epiminonaphth-6-yl)isoxazole-3-carboxamide] | < 20 |  | 20 to 100
6 | CCNC(=O)c1onc(-c2cc(C(C)C)c(O)cc2O)c1-c1ccc2c(c1)CCN(C)C2 [Example 12, 3-(2,4-dihydroxyl-5-isopropylphenyl)-N-ethyl-4-(2-methyl-1,2,3,4-tetrahydroisoquinolin-6-yl)isoxazole-5-carboxamide] | < 20 | < 20 | 
7 | Cc1nnc(-c2noc(-c3cc(C(C)C)c(O)cc3O)c2-c2ccc3c(c2)CCN(C)C3)[nH]1 [Example 15, 4-isopropyl-6-[4-(2-methyl-1,2,3,4-tetrahydroisoquinolin-6-yl)-3-(5-methyl-4H-1,2,4-triazol-3-yl)isoxazol-5-yl]benzene-1,3-diol] | > 100 | 20 to 100 | 
8 | CCc1cnc(-c2noc(-c3cc(C(C)C)c(O)cc3O)c2-c2ccc3c(c2)CCN(CCO)C3)[nH]1 [Example 17, 4-(3-(5-ethyl-1H-imidazol-2-yl)-4-(2-(2-hydroxyethyl)-1,2,3,4-tetrahydroisoquinolin-6-yl)isoxazol-5-yl)-6-isopropylbenzene-1,3-diol] | 20 to 100 | 20 to 100 | 
9 | CCNC(=O)c1noc(-c2cc(C(C)C)c(O)cc2O)c1-c1cnc2c(c1)CN(C)CC2 [Example 19, 5-(2,4-dihydroxyl-5-isopropylphenyl)-N-ethyl-4-(6-methyl-5,6,7,8-tetrahydro-1,6-naphthyridin-3-yl)isoxazole-3-carboxamide] | > 100 | 20 to 100 | 
10 | CCNC(=O)c1noc(-c2cc(C(C)C)c(O)cc2O)c1-c1cc2c(s1)CCN(C)CC2 [Example 22, 5-(2,4-dihydroxyl-5-isopropylphenyl)-N-ethyl-4-(6-methyl-5,6,7,8-tetrahydro-4H-thieno[2,3-d]azepin-2-yl) isoxazole-3-carboxamide] | 20 to 100 | < 20 | 
11 | CCNC(=O)c1noc(-c2cc(C(C)C)c(O)cc2O)c1-c1ccc2c(c1)CCN(C)CC2 [Example 25, 5-(2,4-dihydroxyl-5-isopropylphenyl)-N-ethyl-4-(3-methyl-2,3,4,5-tetrahydro-1H-benzo[d]azepin-7-yl)isoxazole-3-carboxamide] | 20 to 100 | < 20 | 

Continued, in another order:

Row | EC50 [1] [nM] | IC50 (HSP90α; [2]) [nM] | Compound | IC50 (HSP90α) [nM]
12 | 20 to 100 | 20 to 100 | CCNC(=O)c1noc(-c2cc(C(C)C)c(O)cc2O)c1-c1cc2c(s1)CCN(C)C2 [Example 9, 5-(2,4-dihydroxyl-5-isopropylphenyl)-N-ethyl-4-(5-methyl-4,5,6,7-tetrahydrothieno[3,2-c]pyridin-2-yl)isoxazole-3-carboxamide] | 
13 | 20 to 100 | 20 to 100 | CCNC(=O)c1noc(-c2cc(C(C)C)c(O)cc2O)c1-c1nc2c(s1)CCN(C)C2 [Example 10, 5-(2,4-dihydroxyl-5-isopropyl-phenyl)-N-ethyl-4-(5-methyl-4,5,6,7-tetrahydrothiazolo[4,5-c]pyridin-2-yl)isoxazole-3-carboxamide] | 
14 | < 20 | 20 to 100 | CCNC(=O)c1noc(-c2cc(C(C)C)c(O)cc2O)c1-c1ccc2c(n1)CCN(C)C2 [Example 11, 5-(2,4-dihydroxyl-5-isopropylphenyl)-N-ethyl-4-(6-methyl-5,6,7,8-tetrahydro-1,6-naphthyridin-2-yl)isoxazole-3-carboxamide] | 
15 | < 20 | 20 to 100 | CCc1cnc(-c2noc(-c3cc(C(C)C)c(O)cc3O)c2-c2ccc3c(c2)CCN(C)C3)[nH]1 [Example 16, 4-(3-(5-ethyl-1H-imidazol-2-yl)-4-(2-methyl-1,2,3,4-tetrahydroisoquinolin-6-yl)isoxazol-5-yl)-6-isopropylbenzene-1,3-diol] | 
16 | 20 to 100 | < 20 | CCNC(=O)c1noc(-c2cc(C(C)C)c(O)cc2O)c1-c1cc2c(s1)C(C)(C)NCC2 [Example 18, 5-(2,4-dihydroxyl-5-isopropylphenyl)-4-(7,7-dimethyl-4,5,6,7-tetrahydrothieno[2,3-c]pyridin-2-yl)-N-ethyl-isoxazole-3-carboxamide] | 
17 | > 100 | 20 to 100 | CC(C)c1cc(-c2onc(C(O)C(F)(F)F)c2-c2ccc3c(c2)CCN(C)C3)c(O)cc1O (stereo not drawn) [Example 20, 4-isopropyl-6-(4-(2-methyl-1,2,3,4-tetrahydroisoquinolin-6-yl)-3-(2,2,2-trifluoro-1-hydroxyethyl)isoxazol-5-yl)benzene-1,3-diol] | 
18 | > 100 | < 20 | CC(C)c1cc(-c2onc(C(=N)NC#N)c2-c2ccc3c(c2)CCN(C)C3)c(O)cc1O [Example 21, N-cyano-5-(2,4-dihydroxyl-5-isopropylphenyl)-4-(2-methyl-1,2,3,4-tetrahydroisoquinolin-6-yl)isoxazole-3-carboxamidine] | 
19 | 20 to 100 | < 20 | CCNC(=O)c1noc(-c2cc(C(C)C)c(O)cc2O)c1-c1cc2n(c1)CCN(C)C2 [Example 23, 5-(2,4-dihydroxyl-5-isopropylphenyl)-N-ethyl-4-(2-methyl-1,2,3,4-tetrahydropyrrolo[1,2-a]pyrazin-7-yl)isoxazole-3-carboxamide] | 
20 | 20 to 100 | 20 to 100 | CCNC(=O)c1noc(-c2cc(C(C)C)c(O)cc2O)c1-c1nc2c(n1C)CCN(CC(C)C)C2 [Example 24, 5-(2,4-dihydroxyl-5-isopropylphenyl)-N-ethyl-4-(5-isobutyl-1-methyl-4,5,6,7-tetrahydro-1H-imidazo[4,5-c]pyridin-2-yl)isoxazole-3-carboxamide] | 
21 | 20 to 100 | < 20 | CCNC(=O)c1noc(-c2cc(C(C)C)c(O)cc2O)c1-c1ccc2c(c1)CCCN(C)C2 [Example 26, 5-(2,4-dihydroxyl-5-isopropylphenyl)-N-ethyl-4-(2-methyl-2,3,4,5-tetrahydro-1H-benzo[c]azepin-7-yl)isoxazole-3-carboxamide] | 
